Assays:
Assay in all cases: field test of gametocidal activity (sterilisation of anthers)
Assay type in all cases: in vivo
[1] = test system: Sommerweizen Moskovskaya 35; conditions: V. Periode, 1%ige wäßrige Emulsion, 10 kg/ha; for Prozentsatz des Ansetzens der freier Bestäubung: control = 100
Source text: (§1) Die gametozide Aktivität der erfindungsgemäßen Sterilisationsmittel war in Feldversuch in verschiedenen bodenklimatischen Zonen mit Teilstücken von 10 m^2 Größe in drei-- bis viermaliger Wiederholung nachgewiesen. Jedes Sterilisationsmittel wurde mindestens 5 Jahre lang geprüft.
(§2) Die Entwicklung der Perioden der Organogenese wird zytologisch überwacht. Die Behandlung von Pflanzen mit dem Sterilisationsmittel erfolgt am Anfang der fünften Periode der Organogenese nach Kupermann.
(§3) Mit dem Ahrenschieben verwirklicht man die Isolierung von Hauptähren und anderen Stockwerken in Pergamentbeuteln. Bei Weizen und Tritikale werden Einzelisolatoren verwendet. Bei Roggen schließt man je 1 Ähre von 5 bis 7 verschiedenen nebeneinander befindlichen Pflanzen in einen gemeinsamen Isolator ein. Bei Hirse wird jede Rispe getrennt isoliert. Der Sterilitätsprozentsatz (X) für Weizen, Roggen, Tritikale und Hirse wird nach der Formel [formula]
(§4) Samen von unbehandelten Kontrollpflanzen ermittelt.
(§5) Die Kornzahl in nicht isolierten Ähren von Kontrollpflanzen wird bedingt für 100% Ansetzen bei freier Bestäubung angenommen.
(§6) Um zuverlässige Angaben zu erhalten, verwendet man 20 bis 25 Isolatoren jeder Wiederholung für Weizen und Tritikale, 10 bis 15 Isolatoren jeder Wiederholung für Roggen und Hirse.
Pflanzen des Sommerweizens Sorte Moskovskaya 35 werden in der V. Periode der Organogenese (nach Kupermann) mit einer 1%igen wäßrigen Emulsion von Kaliumsalz der 2-Methyl-3-zyklohexenkarbonsäure,2-Methyl-3-zyklohexenkarbon- äthylester, Phthalsäuredipropylester, Phthalsäurediallylester, Phthalsäurediisobutylester, Kaliumsalz der Benzoesäure behandelt. Die Emulsion enthält 0,01 Masse% Dimethylsulfoxid und 0,1 Masse% C12-C14-Kalziumalkylbenzolsulfonat. Der Verbrauch an Präparat beträgt 10 kg/ha. Als Kontrolle dienen Pflanzen, behandelt mit einem Verdünner ohne Sterilisationsmittel. […]
(§7) In allen Fällen dienen als Kontrolle Pflanzen, behandelt mit einem Verdünner ohne Sterilisationsmittel. Die Prüfergebnisse sind in der Tabelle 20 angeführt. […] Periode der Organogenese erhalten.

[2] = test system: Tritikale der Sorte PRAG-109; conditions: V. Periode, 1%ige wäßrige Emulsion, 10 kg/ha; for Prozentsatz des Ansetzens der Körner bei freier Bestäubung: control = 100
Source text: as §1, §2, §3, §4, §5, §6
Pflanzen Tritikale der Sorte PRAG-109 werden in der V. Periode der Organogenese (nach Kupermann) mit einer 1%igen wäßrigen Emulsion von Phthalsäuredibutylester, Phthalsäurediäthylester, Phthalsäuredihexylester, Phthalsäurediisobutylester, Kaliumsalz der 2-Methyl-3-zyklohexenkarbon- säure, 2-Methyl-3-zyklohexenkarbonsäuremethylester behandelt. Die Emulsion enthält 0,01 Masse% Dimethylsulfoxid und 0,1 Masse% C12C14- Kalziumalkylbenzolsulfonat. Der Verbrauch an Präparat beträgt 10 kg/ha. Als Kontrolle dienen Pflanzen, behandelt mit einem Verdünner ohne Sterilisationsmittel. […]
as §7

[3] = test system: tetraploidem Roggen Sorte Belta; conditions: V. Periode, 1%ige wäßrige Emulsion, 6 kg/ha; for Prozentsatz des Ansetzens bei freier Bestäubung: control = 100
Source text: as §1, §2, §3, §4, §5, §6
Pflanzen von tetraploidem Roggen Sorte Belta werden in der V. Periode der Organogenese (nach Kupermann) mit einer 1%igen wäßrigen Emulsion von Kaliumsalz der 2-Methyl-3-zy- klohexenkarbonsäure, 2-Methyl-3-zyklohexenkarbonsäuremethyl- ester, Phthalsäuredibutylester, Phthalsäuredihexylester, Phthalsäuredipropylester, Phthalsäurediallylester, Phthalsäurediisobutylester, Kaliumsalz der […] behandelt. Die Emulsion enthält 0,01 Masse% Dimethylsuloxid und 0,1 Masse% C12-C14-Kalziumalkylbenzolsulfonat. Der Verbrauch an Präparat beträgt 6 kg/ha. Als Kontrolle dienen Pflanzen behandelt mit einem Verdünner ohne Sterilisationsmittel.

[4] = test system: diploidem Roggen Sorte Gibrid 1861/79; conditions: V. Periode, 1%ige wäßrige Emulsion, 6 kg/ha; for Prozentsatz des Ansetzens der Körner bei freier Bestäubung: control = 100
Source text: as §1, §2, §3, §4, §5, §6
Pflanzen von diploidem Roggen Sorte Gibrid 1861/79 werden in der V. Periode der Organogenese (nach Kupermann) mit einer 1%igen wäßrigen Emulsion von Phthalsäurediisobutylester, Kaliumsalz der 2-Methyl-3-zyklohexenkarbonsäure, 2--Methyl-3-zyklohexenkarbonsäuremethylester, Ammoniumsalz der 2-Methyl-3-zyklohexenkarbonsäure, Phthalsäurediallylester, Phthalsäuredihexylester, Ammoniumsalz der p-Hydroxybenzoesäure behandelt. Die Emulsion enthält 0,01 Masse% Dimethylsulfoxid und 0,1 Masse% C12-C14-Kalziumalkylbenzolsulfonat. Der Verbrauch an Präparat beträgt 6 kg/ha. Als Kontrolle dienen Pflanzen, behandelt mit einem Verdünner ohne Sterilisationsmittel.

CC1C=CCCC1C(=O)[O-].[K+] (stereo not drawn) [Beispiel 23, Kaliumsalz der 2-Methyl-3-zyklohexenkarbonsäure]
Kornzahl der Ähre bei freier Bestäubung [1]: 30,8 | Kornzahl der Ähre im Isolator [1]: 0,0 | Prozentsatz der Sterilität [1]: 100,0% | Prozentsatz des Ansetzens der freier Bestäubung [1]: 92,8%

CCOC(=O)C1CCC=CC1C (stereo not drawn) [Beispiel 24, 2-Methyl-3-zyklohexenkarbon-äthylester]
Kornzahl der Ähre bei freier Bestäubung [1]: 29,6 | Kornzahl der Ähre im Isolator [1]: 0,0 | Prozentsatz der Sterilität [1]: 100,0% | Prozentsatz des Ansetzens der freier Bestäubung [1]: 89,2%

CCCOC(=O)c1ccccc1C(=O)OCCC [Beispiel 26, Phthalsäuredipropylester]
Kornzahl der Ähre bei freier Bestäubung [1]: 28,6 | Kornzahl der Ähre im Isolator [1]: 1,2 | Prozentsatz der Sterilität [1]: 95,6% | Prozentsatz des Ansetzens der freier Bestäubung [1]: 86,1%

C=CCOC(=O)c1ccccc1C(=O)OCC=C [Beispiel 27, Phthalsäurediallylester]
Kornzahl der Ähre bei freier Bestäubung [1]: 31,1 | Kornzahl der Ähre im Isolator [1]: 0,3 | Prozentsatz der Sterilität [1]: 98,9% | Prozentsatz des Ansetzens der freier Bestäubung [1]: 94,0%

CC(C)COC(=O)c1ccccc1C(=O)OCC(C)C [Beispiel 28, Phthalsäurediisobutylester]
Kornzahl der Ähre bei freier Bestäubung [1]: 31,8 | Kornzahl der Ähre im Isolator [1]: 0,0 | Prozentsatz der Sterilität [1]: 100,0% | Prozentsatz des Ansetzens der freier Bestäubung [1]: 95,8%

O=C([O-])c1ccccc1.[K+] [Beispiel 29, Kaliumsalz der Benzoesäure]
Kornzahl der Ähre bei freier Bestäubung [1]: 33,0 | Kornzahl der Ähre im Isolator [1]: 7,2 | Prozentsatz der Sterilität [1]: 73,8% | Prozentsatz des Ansetzens der freier Bestäubung [1]: 99,4%

CCCCOC(=O)c1ccccc1C(=O)OCCCC [Beispiel 37, Phthalsäuredibutylester]
Kornzahl der Ähre bei freier Bestäubung [2]: 62,1 | Kornzahl der Ähre im Isolator [2]: 0,1 | Prozentsatz der Sterilität [2]: 99,8% | Prozentsatz des Ansetzens der Körner bei freier Bestäubung [2]: 90,0%

CCOC(=O)c1ccccc1C(=O)OCC [Beispiel 38, Phthalsäurediäthylester]
Kornzahl der Ähre bei freier Bestäubung [2]: 60,8 | Kornzahl der Ähre im Isolator [2]: 0,8 | Prozentsatz der Sterilität [2]: 98,7% | Prozentsatz des Ansetzens der Körner bei freier Bestäubung [2]: 88,1%

CCCCCCOC(=O)c1ccccc1C(=O)OCCCCCC [Beispiel 39, Phthalsäuredihexylester]
Kornzahl der Ähre bei freier Bestäubung [2]: 61,7 | Kornzahl der Ähre im Isolator [2]: 3,0 | Prozentsatz der Sterilität [2]: 95,2% | Prozentsatz des Ansetzens der Körner bei freier Bestäubung [2]: 89,4%

CC1C=CCCC1C(=O)O (stereo not drawn) [Beispiel 41, Kaliumsalz der 2-Methyl-3-zyklohexenkarbon-säure]
Kornzahl der Ähre bei freier Bestäubung [2]: 65,1 | Kornzahl der Ähre im Isolator [2]: 0,1 | Prozentsatz der Sterilität [2]: 99,8% | Prozentsatz des Ansetzens der Körner bei freier Bestäubung [2]: 94,3%

COC(=O)C1CCC=CC1C (stereo not drawn) [Beispiel 42, 2-Methyl-3-zyklohexenkarbonsäuremethylester]
Kornzahl der Ähre bei freier Bestäubung [2]: 64,7 | Kornzahl der Ähre im Isolator [2]: 0,0 | Prozentsatz der Sterilität [2]: 100,0% | Prozentsatz des Ansetzens der Körner bei freier Bestäubung [2]: 93,8%

COC(=O)C1CCC=CC1C (stereo not drawn) [Beispiel 49, 2-Methyl-3-zyklohexenkarbonsäuremethyl-ester]
Kornzahl der Ähre bei freier Bestäubung [3]: 44,2 | Kornzahl der Ähre im Isolator [3]: 0,0 | Prozentsatz der Sterilität [3]: 100,0% | Prozentsatz des Ansetzens bei freier Bestäubung [3]: 93,8%

CCCCOC(=O)c1ccccc1C(=O)OCCCC [Beispiel 50, Phthalsäuredibutylester]
Kornzahl der Ähre bei freier Bestäubung [3]: 43,1 | Kornzahl der Ähre im Isolator [3]: 0,0 | Prozentsatz der Sterilität [3]: 100,0% | Prozentsatz des Ansetzens bei freier Bestäubung [3]: 91,5%

CCCCCCOC(=O)c1ccccc1C(=O)OCCCCCC [Beispiel 51, Phthalsäuredihexylester]
Kornzahl der Ähre bei freier Bestäubung [3]: 45,9 | Kornzahl der Ähre im Isolator [3]: 0,2 | Prozentsatz der Sterilität [3]: 99,5% | Prozentsatz des Ansetzens bei freier Bestäubung [3]: 97,4%

CCCOC(=O)c1ccccc1C(=O)OCCC [Beispiel 52, Phthalsäuredipropylester]
Kornzahl der Ähre bei freier Bestäubung [3]: 40,8 | Kornzahl der Ähre im Isolator [3]: 0,0 | Prozentsatz der Sterilität [3]: 100,0% | Prozentsatz des Ansetzens bei freier Bestäubung [3]: 86,6%

C=CCOC(=O)c1ccccc1C(=O)OCC=C [Beispiel 53, Phthalsäurediallylester]
Kornzahl der Ähre bei freier Bestäubung [3]: 41,6 | Kornzahl der Ähre im Isolator [3]: 0,3 | Prozentsatz der Sterilität [3]: 99,7% | Prozentsatz des Ansetzens bei freier Bestäubung [3]: 88,3%

CC(C)COC(=O)c1ccccc1C(=O)OCC(C)C [Beispiel 54, Phthalsäurediisobutylester]
Kornzahl der Ähre bei freier Bestäubung [3]: 40,4 | Kornzahl der Ähre im Isolator [3]: 0,0 | Prozentsatz der Sterilität [3]: 100,0% | Prozentsatz des Ansetzens bei freier Bestäubung [3]: 85,8%

CC(C)COC(=O)c1ccccc1C(=O)OCC(C)C [Beispiel 82, Phthalsäurediisobutylester]
Kornzahl der Ähre bei freier Bestäubung [4]: 57,1 | Kornzahl der Ähre im Isolator [4]: 0,6 | Prozentsatz der Sterilität [4]: 98,9% | Prozentsatz des Ansetzens der Körner bei freier Bestäubung [4]: 90,9%

CC1C=CCCC1C(=O)O (stereo not drawn) [Beispiel 83, Kaliumsalz der 2-Methyl-3-zyklohexenkarbonsäure]
Kornzahl der Ähre bei freier Bestäubung [4]: 56,7 | Kornzahl der Ähre im Isolator [4]: 0,2 | Prozentsatz der Sterilität [4]: 99,7% | Prozentsatz des Ansetzens der Körner bei freier Bestäubung [4]: 90,2%

COC(=O)C1CCC=CC1C (stereo not drawn) [Beispiel 84, 2--Methyl-3-zyklohexenkarbonsäuremethylester]
Kornzahl der Ähre bei freier Bestäubung [4]: 51,2 | Kornzahl der Ähre im Isolator [4]: 0,0 | Prozentsatz der Sterilität [4]: 100,0% | Prozentsatz des Ansetzens der Körner bei freier Bestäubung [4]: 81,5%

CC1C=CCCC1C(=O)O (stereo not drawn) [Beispiel 85, Ammoniumsalz der 2-Methyl-3-zyklohexenkarbonsäure]
Kornzahl der Ähre bei freier Bestäubung [4]: 57,8 | Kornzahl der Ähre im Isolator [4]: 0,0 | Prozentsatz der Sterilität [4]: 100,0% | Prozentsatz des Ansetzens der Körner bei freier Bestäubung [4]: 92,0%

C=CCOC(=O)c1ccccc1C(=O)OCC=C [Beispiel 86, Phthalsäurediallylester]
Kornzahl der Ähre bei freier Bestäubung [4]: 59,6 | Kornzahl der Ähre im Isolator [4]: 0,0 | Prozentsatz der Sterilität [4]: 100,0% | Prozentsatz des Ansetzens der Körner bei freier Bestäubung [4]: 95,0%

CCCCCCOC(=O)c1ccccc1C(=O)OCCCCCC [Beispiel 87, Phthalsäuredihexylester]
Kornzahl der Ähre bei freier Bestäubung [4]: 56,4 | Kornzahl der Ähre im Isolator [4]: 0,0 | Prozentsatz der Sterilität [4]: 100,0% | Prozentsatz des Ansetzens der Körner bei freier Bestäubung [4]: 89,8%

O=C(O)c1ccc(O)cc1 [Beispiel 88, Ammoniumsalz der p-Hydroxybenzoesäure]
Kornzahl der Ähre bei freier Bestäubung [4]: 68,9 | Kornzahl der Ähre im Isolator [4]: 0,8 | Prozentsatz der Sterilität [4]: 98,5% | Prozentsatz des Ansetzens der Körner bei freier Bestäubung [4]: 109,7%

Source: EP0364581A1, “METHOD OF STERILIZING PLANT POLLEN” (VSESOJUZNY NAUCHNO-ISSLEDOVATELSKY INST. SELSKOKHOZYAISTV. …, priority 1988, dated 1989)
